Patent US20060121136A1, “Hypotensive agent and method for producing same” (National Institute of Advanced Industrial Science and …, priority 2003, published 2006)

Target: T1, angiotensin-converting enzyme (ACE) (Oryctolagus cuniculus, UniProt P12822)
T1 construct: purchased Wako Jun-yaku A6778 (Lot No.)
T1 sequence (P12822 34-1310): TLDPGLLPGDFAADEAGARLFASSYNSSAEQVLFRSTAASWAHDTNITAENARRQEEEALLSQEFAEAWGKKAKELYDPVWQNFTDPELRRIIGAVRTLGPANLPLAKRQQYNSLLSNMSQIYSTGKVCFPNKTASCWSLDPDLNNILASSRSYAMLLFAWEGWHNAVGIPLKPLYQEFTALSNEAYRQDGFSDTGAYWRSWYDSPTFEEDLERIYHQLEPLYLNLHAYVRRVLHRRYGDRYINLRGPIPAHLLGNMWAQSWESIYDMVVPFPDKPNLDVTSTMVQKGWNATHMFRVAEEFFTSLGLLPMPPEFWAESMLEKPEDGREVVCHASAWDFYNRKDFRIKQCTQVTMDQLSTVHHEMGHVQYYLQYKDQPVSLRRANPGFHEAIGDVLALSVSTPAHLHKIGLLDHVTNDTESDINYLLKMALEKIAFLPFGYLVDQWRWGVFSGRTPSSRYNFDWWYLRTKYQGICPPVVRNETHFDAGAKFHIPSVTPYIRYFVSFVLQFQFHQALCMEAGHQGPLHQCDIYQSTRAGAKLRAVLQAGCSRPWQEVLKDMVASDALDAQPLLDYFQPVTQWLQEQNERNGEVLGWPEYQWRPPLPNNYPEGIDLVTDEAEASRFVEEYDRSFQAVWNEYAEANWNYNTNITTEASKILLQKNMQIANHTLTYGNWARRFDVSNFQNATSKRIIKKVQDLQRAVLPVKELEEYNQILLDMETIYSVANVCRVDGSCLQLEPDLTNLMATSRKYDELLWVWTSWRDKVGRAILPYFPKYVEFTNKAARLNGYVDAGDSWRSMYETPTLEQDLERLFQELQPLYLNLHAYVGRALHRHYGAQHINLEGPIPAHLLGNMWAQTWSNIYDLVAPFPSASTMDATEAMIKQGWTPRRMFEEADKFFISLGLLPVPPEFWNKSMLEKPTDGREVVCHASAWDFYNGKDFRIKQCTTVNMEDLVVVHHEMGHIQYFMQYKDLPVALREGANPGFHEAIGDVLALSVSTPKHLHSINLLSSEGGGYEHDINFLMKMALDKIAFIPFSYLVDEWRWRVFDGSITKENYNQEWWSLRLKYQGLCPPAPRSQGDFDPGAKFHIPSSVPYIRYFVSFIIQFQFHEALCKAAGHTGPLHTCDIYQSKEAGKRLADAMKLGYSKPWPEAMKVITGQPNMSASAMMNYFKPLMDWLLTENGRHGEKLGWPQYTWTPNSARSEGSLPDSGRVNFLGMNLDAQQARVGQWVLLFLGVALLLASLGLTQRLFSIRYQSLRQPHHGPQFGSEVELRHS
Experiment: ACE inhibiting activity (Hip-His-Leu substrate, liberated hippuric acid OD at 228 nm)
Type: biochemical
Method: The blood pressure-lowering activity of the oligosaccharide for use in the invention was investigated by determining the angiotensin-converting enzyme inhibiting activity (hereinafter referred to as ACE inhibiting activity) thereof. Concretely, various oligosaccharides mentioned below were analyzed for their ACE inhibiting activity. • 1) Glc(α1-1α)Glc: α,α-trehalose (sold by Wako Jun-yaku, Lot No. KP7915), • 2) Glc(α1-1β)Glc: α,β-trehalose (sold by Sigma, Lot No. T-0299), • 3) Glc(β1-1β)Glc: β,β-trehalose (sold by Sigma, Lot No. T-0917), • 4) Glc(α1-2)Glc: kojibiose (sold by Sigma, Lot No. T-0299), • 5) Glc(β1-2)Glc: sophorose (sold by Sigma, Lot No. S-1404), • 6) Glc(α1-3)Glc: nigerose (sold by Wako Jun-yaku, Lot No. 142-06433), • 7) Glc(β1-3)Glc: laminaribiose (sold by Sigma, Lot No. L-6384), • 8) Glc(α1-4)Glc: maltose (sold by Sigma, Lot No. M-9171), • 9) Glc(β1-4)Glc: cellobiose (sold by Nacalai, Lot No. 075-11), • 10) Glc(α1-6)Glc: isomaltose (sold by Sigma, Lot No. I-7253), • 11) Glc(β1-6)Glc: gentiobiose (sold by Sigma, Lot No. G-3000), • 12) Gal(α1-6)Glc: melibiose (sold by Sigma, Lot No. M-5500), • 13) Gal(β1-6)Gal (sold by Sigma, Lot No. G-5643), • 14) Glc(α1-6) glucitol:Glc(α1-6) mannitol (=50:50) (sold by Sigma, Lot No. P8583-500), • 15) Glc(α1-6)Fru: palatinose (sold by Sigma, Lot No. M-5500), • 16) Fru(β2-1α)Glc: sucrose (sold by Wako Jun-yaku, Lot No. 192-00012), and • 17) Glc(α1-3) Fru(β2-1α) Glc: melezitose (sold by Nacalai, Lot No. 214-01). In these, Glu means glucose; Gal means galactose; and Fru means fructose.
Each oligosaccharide as above was dissolved in water (MilliQ water). Because of the solubility thereof, the sample was dissolved to have a final concentration of 10, 30 or 100 mM at the time when its activity is determined (Table 1). Next, with cooling with ice, 30 μl of the sample (Nos. 1 to 17 in Table 1) was put into a test tube. Then, 100 μl of ACE (sold by Wako Jun-yaku, Lot No. A6778) in a borate buffer (60 mU/ml) (pH 8.3) was added to each sample. As a blank, one also added with 250 μl of 1 N HCl serving as a reaction stopper was prepared. These were pre-incubated at 37° C. for 5 minutes. Further, 250 μl of a borate buffer (pH 8.3) containing as a substrate, 7.6 mM Hip-His-Leu (sold by Sigma, Lot No. 012-02195) and 608 mM sodium chloride (sold by Wako Jun-yaku, Lot No. 191-01665) was added. These were reacted at 37° C. for 30 minutes. Then, 250 μl of 1 NHCl was added and stirred, and the reaction was stopped. Then, 1.5 ml of ethyl acetate (sold by Wako Jun-yaku, Lot No. 051-00356) was added, and the thus-liberated hippuric acid was extracted out. After thus extracted, it was centrifuged at 3000 rpm for 10 minutes, and 0.5 ml of the supernatant (ethyl acetate layer)was recovered. The thus-recovered ethyl acetate was removed under reduced pressure, and 4 ml of water was added and stirred. The absorption of the dissolved hippuric acid at 228 nm (OD) was measured. The borate buffer used herein was prepared from Na2B4O7 (sold by Wako Jun-yaku, Lot No. 194-01415) and H3BO3 (sold by Wako Jun-yaku, Lot No. 012-02195) so that its pH could be 8.3. The data obtained were computed according to the calculation formula mentioned below, and the ACE inhibiting activity (%) of each sample was obtained as in Table 1 and FIG. 1. ACE Inhibiting Activity (%)={[(solvent OD−solvent blank OD)−(sample OD−sample blank OD)]/(solvent OD−solvent blank OD)}×100.

[1] = final sample concentration 10 mM
[2] = final sample concentration 30 mM
[3] = final sample concentration 100 mM

Row | ACE Inhibiting Activity (%) [2] | ACE Inhibiting Activity (%) [3] | Compound | also measured
1 | – | – | OC[C@H]1O[C@H](O[C@H]2[C@H](O)[C@@H](CO)OC(O)[C@@H]2O)[C@H](O)[C@@H](O)[C@@H]1O (stereo partly shown) [compound 6, nigerose] | ACE Inhibiting Activity (%) [1]: 0.4%
2 | 0.8% | – | OC[C@H]1O[C@@H](O[C@H]2[C@H](O)[C@@H](CO)OC(O)[C@@H]2O)[C@H](O)[C@@H](O)[C@@H]1O (stereo partly shown) [compound 7, laminaribiose] | –
3 | 0.6% | – | OC[C@H]1O[C@@H](O[C@@H]2O[C@H](CO)[C@@H](O)[C@H](O)[C@H]2O)[C@H](O)[C@@H](O)[C@@H]1O [compound 3, β,β-trehalose] | –
4 | 1.2% | – | OC[C@H]1O[C@H](O[C@H]2O[C@H](CO)[C@@H](O)[C@H](O)[C@H]2O)[C@H](O)[C@@H](O)[C@@H]1O [compound 1, α,α-trehalose] | –
5 | – | – | OC[C@H]1O[C@H](O[C@H]2[C@H](O)[C@@H](O)C(O)O[C@@H]2CO)[C@H](O)[C@@H](O)[C@@H]1O (mixture of isomers) [compound 8, maltose] | inhibition at 100000 µM [3]: 6.3%
6 | – | 54.9% | OC[C@H]1O[C@@H](OC[C@H]2OC(O)[C@H](O)[C@@H](O)[C@H]2O)[C@H](O)[C@@H](O)[C@H]1O (stereo partly drawn) [compound 13, Gal(β1-6)Gal] | –
7 | – | 27.2% | OC[C@H]1O[C@H](OC[C@H]2OC(O)[C@H](O)[C@@H](O)[C@@H]2O)[C@H](O)[C@@H](O)[C@@H]1O (stereo partly shown) [compound 10, isomaltose] | –
8 | – | – | OC[C@H]1O[C@H](O[C@H]2C(O)O[C@H](CO)[C@@H](O)[C@@H]2O)[C@H](O)[C@@H](O)[C@@H]1O (stereo partly shown) [compound 4, kojibiose] | ACE Inhibiting Activity (%) [1]: 1.0%
9 | 1.6% | – | OC[C@H]1O[C@@H](O[C@H]2O[C@H](CO)[C@@H](O)[C@H](O)[C@H]2O)[C@H](O)[C@@H](O)[C@@H]1O [compound 2, α,β-trehalose] | –
10 | – | – | O=C[C@H](O)[C@@H](O)[C@H](O[C@@H]1O[C@H](CO)[C@@H](O)[C@H](O)[C@H]1O)[C@H](O)CO [compound 9, cellobiose] | inhibition at 30000 µM [2]: -1%
11 | – | – | OC[C@H]1O[C@@](CO)(O[C@H]2O[C@H](CO)[C@@H](O)[C@H](O)[C@H]2O)[C@@H](O[C@H]2O[C@H](CO)[C@@H](O)[C@H](O)[C@H]2O)[C@@H]1O [compound 17, melezitose] | inhibition at 30000 µM [2]: 5.5%
12 | – | 93.5% | OC[C@H]1O[C@H](OC[C@H]2OC(O)(CO)[C@@H](O)[C@@H]2O)[C@H](O)[C@@H](O)[C@@H]1O (stereo partly shown) [compound 15, palatinose] | –
13 | 3.0% | – | OC[C@H]1O[C@@H](O[C@H]2C(O)O[C@H](CO)[C@@H](O)[C@@H]2O)[C@H](O)[C@@H](O)[C@@H]1O (stereo partly shown) [compound 5, sophorose] | –
14 | – | – | OC[C@H]1O[C@@](CO)(O[C@H]2O[C@H](CO)[C@@H](O)[C@H](O)[C@H]2O)[C@@H](O)[C@@H]1O [compound 16, sucrose] | inhibition at 30000 µM [2]: 6.6%

Row | Compound | ACE Inhibiting Activity (%) [2] | ACE Inhibiting Activity (%) [3] | also measured
15 | OC[C@H]1O[C@H](OCC2O[C@@H](O)[C@H](O)[C@@H](O)[C@@H]2O)[C@H](O)[C@@H](O)[C@H]1O (stereo partly shown) [compound 12, melibiose] | – | 40.7% | –
16 | gentiobiose [compound 11] | – | 31.5% | –
